# Reference: US20090093454A1, “Chemical Compounds” (priority 2005, published 2009)
# Test system: HIV-1
# Experiment: HIV infectivity assay (Table 2, strain not given)
# Format: cell-based
# Settings: Human immunodeficiency virus 1, read-out: Activity Level
# Procedure: (§1) Compounds were profiled against two HIV-1 viruses, the M-tropic (CCR5 utilizing) Ba-L strain and the T-tropic (CXCR4 utilizing) IIIB strain. Both viruses were propagated in human peripheral blood lymphocytes. Compounds were tested for there ability to block infection of the HOS cell line (expressing hCXCR4/hCCR5/hCD4/pHIV-LTR-luciferase) by either HIV-1 Ba-L or HIV-1, IIIB. Compound cytotoxicity was also examined in the absence of virus addition.
# (§2) HOS cells (expressing hCXCR4/hCCR5/hCD4/pHIV-LTR-luciferase) were harvested and diluted in Dulbeccos modified Eagles media supplemented with 2% FCS and non-essential amino acid to a concentration of 60,000 cells/ml. The cells were plated into 96-well plates (100 ul per well) and the plates were placed in a tissue culture incubator (37° C.; 5% CO2/95% air) for a period of 24 h.
# Subsequently, 50 ul of the desired drug solution (4 times the final concentration) was added to each well and the plates were returned to the tissue culture incubator (37° C.; 5% CO2/95% air) for 1 h. Following this incubation 50 ul of diluted virus was added to each well (approximately 2 million RLU per well of virus). The plates were returned to the tissue culture incubator (37° C.; 5% CO2/95% air) and were incubated for a further 96 h.
# Following this incubation the endpoint for the virally infected cultures was quantified following addition of Steady-Glo Luciferase assay system reagent (Promega, Madison, Wis.). Cell viability or non-infected cultures was measured using a CellTiter-Glo luminescent cell viability assay system (Promega, Madison, Wis.). All luminescent readouts are performed on a Topcount luminescence detector (Packard, Meridien, Conn.).
# as §1, with “Ba-L was” for “Both viruses were”, “either peripheral blood lymphocytes or SupT1/CCR5+/CXCR4+ cells. IIIB was propagated in” for “human”, “their” for “there”
# as §2, with “FCS” for “FCS and non-essential amino acid”, “120,000” for “60,000”, “(50 μl” for “(100 ul”, “(370°” for “(37°”
# Subsequently, 50 μl of the desired drug solution (2 times the final concentration) was added to each well and the plates were returned to the tissue culture incubator (370° C.; 5% CO2/95% air) for 1 h. Following this incubation, 60 μl of diluted virus (4 times the final concentration) was added to 60 μl of 2× the final desired concentration of the compound and 100 μl of this compound/virus mix was added to each well (approximately 2 million RLU per well of virus). The plates were returned to the tissue culture incubator (370° C.; 5% CO2/95% air) and were incubated for a further 96 h.
row,SMILES,IC50 [nM]
1,"CN1CCCN(c2cccc3nc(CN4CCC[C@@H]5CCCc6cccnc6[C@H]54)cn23)CC1 (relative stereo) [Example 125, (trans) 1-{[5-(4-methylhexahydro-1H-1,4-diazepin-1-yl)imidazo[1,2-a]pyridin-2-yl]methyl}-2,3,4,4a,5,6,7,11b-octahydro-1H-pyrido[3′,2′:6,7]cyclohepta[1,2-b]pyridine]",100 to 500
2,"NCCN1CCN(c2cccc3nc(CN4CCC[C@H]5CCc6cccnc6[C@H]54)cn23)CC1 [Example 92, [2-(4-{2-[(4aR,10bS)-3,4,4a,5,6,10b-hexahydro-1,10-Phenanthrolin-1(2H)-ylmethyl]imidazo[1,2-a]pyridin-5-yl}-1-piperazinyl)ethyl]amine]",< 100
3,"c1cnc2c(c1)CC[C@@H]1CCCN(Cc3cn4c(NC[C@@H]5CCCNC5)cccc4n3)[C@H]21 [Example 113, 2-[(4aR,10bS)-3,4,4a,5,6,10b-hexahydro-1,10-phenanthrolin-1(2H)-ylmethyl]-N-[(3R)-3-piperidinylmethyl]imidazo[1,2-a]pyridin-5-amine]",< 100
4,"CN1CCC[C@H](Cn2c(CN3CCC[C@H]4CCc5cccnc5[C@H]43)nc3ccccc32)C1 [Example 66, (4aR,10bS)-1-[(1-{[(3S)-1-methyl-3-piperidinyl]methyl}-1H-benzimidazol-2-yl)methyl]-1,2,3,4,4a,5,6,10b-octahydro-1,10-phenanthroline]",< 100
5,"CN1CCN(c2cccc3nc(CN4CCC[C@H]5CCc6cccnc6[C@H]54)n(C)c23)CC1 [Example 134, (4aR,10bS)-1-{[1-methyl-7-(4-methyl-1-piperazinyl)-1H-benzimidazol-2-yl]methyl}-1,2,3,4,4a,5,6,10b-octahydro-1,10-phenanthroline]",< 100
6,"NCCCCn1c(CN2CCC[C@H]3CCc4cccnc4[C@H]32)nc2ccccc21 (racemic) [Example 38, (cis) 4-[2-(3,4,4a,5,6,10b-hexahydro-1,10-phenanthrolin-1(2H)-ylmethyl)-1H-benzimidazol-1-yl]-1-butanamine]",100 to 500
7,"C[C@@H]1CN(c2cccc3nc(CN4CCC[C@H]5CCc6cccnc6[C@H]54)cn23)C[C@H](C)N1 [Example 77, (4aR,10bS)-1-({5-[(3R,5S)-3,5-dimethyl-1-piperazinyl]imidazo[1,2-a]pyridin-2-yl}methyl)-1,2,3,4,4a,5,6,10b-octahydro-1,10-phenanthroline]",< 100
8,"O=C(CN1CCN(c2cccc3nc(CN4CCC[C@H]5CCc6cccnc6[C@H]54)cn23)CC1)N1CCCC1 [Example 101, (4aR,10bS)-1-[(5-{4-[2-oxo-2-(1-pyrrolidinyl)ethyl]-1-piperazinyl}imidazo[1,2-a]pyridin-2-yl)methyl]-1,2,3,4,4a,5,6,10b-octahydro-1,10-phenanthroline]",< 100
9,"c1cnc2c(c1)CC[C@@H]1CCCN(Cc3cn4c(N5CCC(C6CCN(c7cccc8nc(CC9CCC[C@H]%10CCc%11cccnc%11[C@@H]9%10)cn78)CC6)CC5)cccc4n3)[C@H]21 (stereo partly drawn) [Example 76b, (4aR,10bS)-1-{[5-(1′-{2-[(6aS,10aR)-5,6,6a,7,8,9,10,10a-octahydrobenzo[h]quinolin-10-ylmethyl]imidazo[1,2-a]pyridin-5-yl}-4,4′-bipiperidin-1-yl)imidazo[1,2-a]pyridin-2-yl]methyl}-1,2,3,4,4a,5,6,10b-octahydro-1,10-phenanthroline]",500 to 10000
10,"c1cnc2c(c1)CC[C@H]1CCN(Cc3nc4ccccc4n3CCCN3CCCCC3)[C@H]21 (racemic) [Example 133, (trans) 1-({1-[3-(1-piperidinyl)propyl]-1H-benzimidazol-2-yl}methyl)-2,3,3a,4,5,9b-hexahydro-1H-pyrrolo[3,2-h]quinoline]",100 to 500
11,"NCCCCn1c(CN2CC[C@@H]3CCc4cccnc4[C@H]32)nc2ccccc21 (racemic) [Example 130, (trans) 4-[2-(2,3,3a,4,5,9b-hexahydro-1H-pyrrolo[3,2-h]quinolin-1-ylmethyl)-1H-benzimidazol-1-yl]-1-butanamine]",100 to 500
12,"N[C@H]1CCN(c2cccc3nc(CN4CCC[C@H]5CCc6cccnc6[C@H]54)cn23)C1 [Example 107, (3S)-1-{2-[(4aR,10bS)-3,4,4a,5,6,10b-hexahydro-1,10-phenanthrolin-1(2H)-ylmethyl]imidazo[1,2-a]pyridin-5-yl}-3-pyrrolidinamine]",< 100
13,"NCC1CCN(c2cccc3nc(CN4CCC[C@H]5CCc6cccnc6[C@H]54)cn23)CC1 [Example 85, [(1-{2-[(4aR,10bS)-3,4,4a,5,6,10b-hexahydro-1,10-phenanthrolin-1(2H)-ylmethyl]imidazo[1,2-a]pyridin-5-yl}-4-piperidinyl)methyl]amine]",< 100
14,"CN(C)C1CCN(c2cccc3nc(CN4CCC[C@H]5CCc6cccnc6[C@H]54)cn23)CC1 [Example 67, 1-{2-[(4aR,10bS)-3,4,4a,5,6,10b-hexahydro-1,10-phenanthrolin-1(2H)-ylmethyl]imidazo[1,2-a]pyridin-5-yl}-N,N-dimethyl-4-piperidinamine]",< 100
15,"CN(C)CCCn1c(CN2CCC[C@H]3CCc4cccnc4[C@H]32)nc2ccccc21 (racemic) [Example 41, (cis) 3-[2-(3,4,4a,5,6,10b-hexahydro-1,10-phenanthrolin-1(2H)-ylmethyl)-1H-benzimidazol-1-yl]-N,N-dimethyl-1-propanamine]",< 100
16,"CN(C)CCCn1cncc1CN1CCC[C@H]2CCc3cccnc3[C@H]21 [Example 51b, (3-{5-[(4aR,10bS)-3,4,4a,5,6,10b-hexahydro-1,10-phenanthrolin-1(2H)-ylmethyl]-1H-imidazol-1-yl}propyl)dimethylamine]",500 to 10000
17,"NC1CCN(c2cccc3nc(CN4CCC[C@H]5CCc6cccnc6[C@H]54)cn23)CC1 [Example 89, 1-{2-[(4aR,10bS)-3,4,4a,5,6,10b-hexahydro-1,10-phenanthrolin-1(2H)-ylmethyl]imidazo[1,2-a]pyridin-5-yl}-4-piperidinamine]",< 100
18,"CN1CCN(c2cccc3nc(CN4CCC[C@H]5CCc6cccnc6[C@@H]54)cn23)CC1 [Example 53, (4aR,10bR)-1-{[5-(4-methyl-1-piperazinyl)imidazo[1,2-a]pyridin-2-yl]methyl}-1,2,3,4,4a,5,6,10b-octahydro-1,10-phenanthroline]",< 100
19,"CN(C)CCNc1cccc2nc(CN3CCC[C@H]4CCc5cccnc5[C@H]43)cn12 [Example 90, N′-{2-[(4aR,10bS)-3,4,4a,5,6,10b-hexahydro-1,10-phenanthrolin-1(2H)-ylmethyl]imidazo[1,2-a]pyridin-5-yl}-N,N-dimethyl-1,2-ethanediamine]",100 to 500
20,"c1cnc2c(c1)CC[C@@H]1CCCN(Cc3nc4ccccc4n3CCCN3CCCCC3)[C@H]21 (racemic) [Example 43, (cis) 1-({1-[3-(1-piperidinyl)propyl]-1H-benzimidazol-2-yl}methyl)-1,2,3,4,4a,5,6,10b-octahydro-1,10-phenanthroline]",< 100
21,"CN1CCN(c2cccc3nc(CN4CCC[C@H]5CCc6cccnc6[C@H]54)c(CN4CCOCC4)n23)CC1 [Example 59, (4aR,10bS)-1-{[5-(4-methyl-1-piperazinyl)-3-(4-morpholinylmethyl)imidazo[1,2-a]pyridin-2-yl]methyl}-1,2,3,4,4a,5,6,10b-octahydro-1,10-phenanthroline]",< 100
22,"CN1CCN(c2cccc3nc(CN4CCC[C@H]5CCc6cccnc6[C@H]54)c(CN4CCCC4)n23)CC1 [Example 58, (4aR,10bS)-1-{[5-(4-methyl-1-piperazinyl)-3-(1-pyrrolidinylmethyl)imidazo[1,2-a]pyridin-2-yl]methyl}-1,2,3,4,4a,5,6,10b-octahydro-1,10-phenanthroline]",< 100
23,"CNC1CCN(c2cccc3nc(CN4CCC[C@H]5CCc6cccnc6[C@H]54)cn23)C1 (stereo partly drawn) [Example 95, 1-{2-[(4aR,10bS)-3,4,4a,5,6,10b-hexahydro-1,10-phenanthrolin-1(2H)-ylmethyl]imidazo[1,2-a]pyridin-5-yl}-N-methyl-3-pyrrolidinamine]",< 100
